# Measurements published in ChEMBL document CHEMBL1201862, “PubChem BioAssay data set” (2004).
#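 These data come from cells grown in 96-well plates and exposed to compound for 48 hours at five concentrations. GI50 marks 50% less growth.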 Activity calls are given as the source filed them. Cut-off read from the data, not from the text of the source: active = GI50 up to about 1.1 µM and inactive = higher.
# Legend:
# Assay in all cases: NCI tumour cell line growth inhibition, 48 h
# A498 = tested on: A498
# ACHN = tested on: ACHN
# HCT-15 = tested on: HCT-15
# HL-60 = tested on: HL-60
# K562 = tested on: K562
# KM-20L2 = tested on: KM-20L2
# Malme-3M = tested on: Malme-3M
# NCI-H460 = tested on: NCI-H460
# NCI-H522 = tested on: NCI-H522
# OVCAR-3 = tested on: OVCAR-3
# OVCAR-8 = tested on: OVCAR-8
# RPMI-8226 = tested on: RPMI-8226
# BT-549 = tested on: BT-549
# DU-145 = tested on: DU-145
# Hs-578T = tested on: Hs-578T
# MDA-MB-231 = tested on: MDA-MB-231
# NCI/ADR-RES = tested on: NCI/ADR-RES
# PC-3 = tested on: PC-3
# SR = tested on: SR
# T47D = tested on: T47D
SMILES,GI50 (A498),GI50 (ACHN),GI50 (HCT-15),GI50 (HL-60),GI50 (K562),GI50 (KM-20L2),GI50 (Malme-3M),GI50 (NCI-H460),GI50 (NCI-H522),GI50 (OVCAR-3),GI50 (OVCAR-8),GI50 (RPMI-8226),GI50 (BT-549),GI50 (DU-145),GI50 (Hs-578T),GI50 (MDA-MB-231),GI50 (NCI/ADR-RES),GI50 (PC-3),GI50 (SR),GI50 (T47D)
COc1cccc2c1C1=CC(=O)CCC1C(C)(C)O2 (centres undefined),> 100 µM (inactive),> 100 µM (inactive),> 100 µM,60 µM (inactive),> 100 µM (inactive),> 100 µM (inactive),> 100 µM (inactive),35.9 µM (inactive),> 100 µM (inactive),> 100 µM (inactive),> 100 µM (inactive),20.6 µM (inactive),–,–,–,–,–,–,–,–
Cc1c2cc[n+](C)cc2c(C)c2c1[nH]c1ccc(O)c(OCC(F)(F)F)c12,10.8 µM (inactive),–,–,2.5 µM (inactive),2.39 µM (inactive),7.13 µM (inactive),1.63 µM (inactive),1.51 µM (inactive),1.01 µM (active),0.895 µM (active),1.85 µM (inactive),2.22 µM (inactive),–,–,–,–,–,–,–,–
Cc1cccc(/N=C/C=C(\Cl)c2ccc3ccccc3c2)c1,> 100 µM (inactive),16.4 µM (inactive),11.7 µM,11.4 µM (inactive),12.6 µM (inactive),–,17.1 µM (inactive),28.4 µM (inactive),32.6 µM (inactive),15 µM (inactive),18.4 µM (inactive),7.91 µM (inactive),19.1 µM (inactive),17.7 µM (inactive),26.6 µM (inactive),15.9 µM (inactive),17.7 µM (inactive),21 µM (inactive),3.88 µM (inactive),4.88 µM (inactive)
CC(C)/C(Cl)=N\OC(=O)Nc1ccc(S(N)(=O)=O)cc1,17 µM (inactive),13.9 µM (inactive),16.6 µM,1.89 µM (inactive),2.79 µM (inactive),–,4.59 µM (inactive),20.5 µM (inactive),1.21 µM (inactive),14.3 µM (inactive),17.9 µM (inactive),2.16 µM (inactive),2.75 µM (inactive),17.9 µM (inactive),25.2 µM (inactive),12.7 µM (inactive),18.7 µM (inactive),18.5 µM (inactive),2.08 µM (inactive),22.6 µM (inactive)
S=c1nc(N/N=C/c2cccs2)c2cn[nH]c2[nH]1,4.02 µM (inactive),26.8 µM (inactive),19.5 µM,76.4 µM (inactive),16.3 µM (inactive),–,41.4 µM (inactive),0.134 µM (active),27.3 µM (inactive),9.25 µM (inactive),25.6 µM (inactive),5.04 µM (inactive),> 100 µM (inactive),34.8 µM (inactive),> 100 µM (inactive),28.1 µM (inactive),27.2 µM (inactive),15.1 µM (inactive),11.8 µM (inactive),23.7 µM (inactive)
NC(Cc1cc(Br)c(O)c(Br)c1)C(=O)O (centres undefined),> 100 µM (inactive),> 100 µM (inactive),> 100 µM,> 100 µM (inactive),> 100 µM (inactive),–,> 100 µM (inactive),> 100 µM (inactive),> 100 µM (inactive),> 100 µM (inactive),> 100 µM (inactive),> 100 µM (inactive),> 100 µM (inactive),> 100 µM (inactive),> 100 µM (inactive),> 100 µM (inactive),> 100 µM (inactive),> 100 µM (inactive),> 100 µM (inactive),> 100 µM (inactive)
Cc1ccc(-c2sc(-c3ccc(C)cc3)c3c2C2CCC3C2)cc1,> 50 µM (inactive),> 50 µM (inactive),> 50 µM,> 50 µM (inactive),> 50 µM (inactive),–,> 50 µM (inactive),> 50 µM (inactive),> 50 µM (inactive),> 50 µM (inactive),> 50 µM (inactive),> 50 µM (inactive),> 50 µM (inactive),> 50 µM (inactive),> 50 µM (inactive),> 50 µM (inactive),> 50 µM (inactive),> 50 µM (inactive),> 50 µM (inactive),> 50 µM (inactive)
CCOC(=O)c1ccc(/N=C/c2ccc(N(CCC#N)S(=O)(=O)c3ccccc3)cc2C)cc1,> 100 µM (inactive),–,6.82 µM,19.4 µM (inactive),9.79 µM (inactive),16.4 µM (inactive),53.8 µM (inactive),–,72.1 µM (inactive),54.7 µM (inactive),> 100 µM (inactive),36.2 µM (inactive),–,–,–,–,–,–,–,–
CC(C)N1CC2CC(CN(C(=O)c3ccc(Cl)cc3)C2)C1,> 100 µM (inactive),> 100 µM (inactive),> 100 µM,> 100 µM (inactive),> 100 µM (inactive),> 100 µM (inactive),> 100 µM (inactive),> 100 µM (inactive),> 100 µM (inactive),> 100 µM (inactive),> 100 µM (inactive),> 100 µM (inactive),–,–,–,–,–,–,–,–
